Reference: patent US11426385B2, “Methods of improving cancer chemotherapy” (THE REGENTS OF THE UNIVERSITY OF CALIFORNIA, priority 2017, dated 2022)

Experiments:
COX-1 = COX-1 inhibitory activity (Table 3); format: biochemical; parameters: dose or concentration left out as unconfirmed
[1] = test system: bladder cancer PDX BL0293; experiment: tumor growth and survival in NSG-PDX bladder cancer mouse model BL0293; format: in vivo, NSG mice
Experimental: (§1) Materials and Supplies. Bladder cancer subject-derived xenograft (PDX) models were provided by The Jackson Laboratory (JAX, Bar Harbor, Me.). […] All experiments utilized PDX models within the first five passages. […] Gemcitabine was purchased from LC Laboratories (Woburn, Mass.). […] The cell lines have not been tested and authenticated by the authors.
(§2) PDX bladder cancer. NSG PDX studies were performed at the University of California Davis with IACUC approval. […] Gemcitabine was dissolved in 0.9% saline and administered at a dose of 150 mg/kg (IP, weekly) for 4 weeks. Animal weight and tumor size were measured twice per week. […] The percentage of tumor growth inhibition (TGI) was calculated as follows; 100%×(1−[(V^treated(final day)−V^treated(initial day))/(V^control(final day)−V^control(initial day))]), where V is tumor volume.
(§3) Statistics. Data are presented as mean±standard error of the mean (SEM) or mean±standard deviation (SD). Group comparisons were carried out using one-way analysis of variance or Student's t test. Survival analysis was performed using the Kaplan-Meier method. A p value of less than 0.05 was considered statistically significant.

[2] = test system: bladder cancer PDX BL0269; experiment: tumor growth in NSG-PDX bladder cancer mouse model BL0269; format: in vivo, NSG mice
Experimental: as §1, §2, §3

[3] = test system: bladder cancer PDX BL0808; experiment: gemcitabine combination in bladder cancer PDX BL0808; format: in vivo
Experimental: PDX BL0808 was implanted into immunodeficient nod scid gamma (NSG) mice and treatment was started once tumor volume reached approximately 250 mm^3. Treatment consisted of either vehicle (5 μL/g PEG300, p.o., once daily until end of study), PTUPB (30 mg/kg in PEG300, p.o., once daily until end of study), gemcitabine (150 mg/kg in WFI, IP, once weekly, 4 times) or a combination of PTUPB with gemcitabine. Tumor volume and animal weight was monitored every other day and mice were sacrificed once tumor size reached 2 cm and tumor specific survival was recorded.

[4] = toxicity in PDX-bearing mice (body weight, blood counts, chemistry, histology of major organs); parameters: species or system NSG mice; details: mouse, in vivo
Experimental: as §2
(§4) Blood samples from mice were collected and analyzed for complete blood count (CBC), blood urea nitrogen (BUN), aspartate aminotransferase (AST), creatinine and total bilirubin at the Veterinary Medicine Comparative Pathology Laboratory of University of California Davis. The tumor, heart, liver, spleen, lung and kidney were harvested and the tissue samples were fixed in formalin or frozen at −80° C. […] The membranes were then probed with horseradish peroxidase (HRP) tagged secondary antibodies and epitopes were detected using the ECL Plus Western Blotting Detection Reagent (GE Healthcare, Piscataway, N.J.). Cell proliferation and apoptosis assessed with Ki-67 and cleaved caspase-3 antibodies (Cell Signaling, Danvers, Mass.) using an immunohistochemistry kit per the manufacturer's instructions (BioGenex, Fremont, Calif.).

p-ERK and p-AKT = experiment: Western blot of PDX BL0293 tumor tissue; format: in vivo, NSG mice; details: day 3; BL0293 tumors
Experimental: as §4, with “C. Tumor sections were stained with hematoxylin and eosin (H&E) or were used for immunohistochemistry analysis. A board-certified pathologist provided detailed interpretation of tumor histomorphology and scoring of immunohistochemical staining. Some of the tumor sections were lysed and chromatographed using SDS-PAGE followed by transfer onto a PVDF membrane.” for “C.”

[5] = test system: 5637 bladder cancer cells; experiment: 72 hr cell viability assay (MTS) and combination index, 5637; format: cell-based, human
Experimental: (§5) Median effect analysis to determine in vitro drug-drug interaction. […] PTUPB was dissolved in dimethyl sulfoxide (DMSO) to a final stock concentration of 10 mM. […] Cells were seeded at 2,000-3,000 cells and 100 μl of medium per well into 96-well plates (Becton Dickinson, Franklin Lakes, N.J.), and incubated overnight. Different concentrations of these two drugs were diluted in culture media and added to each well. The plates were then incubated for an additional 72 hours. The control group was dosed with 0.2% DMSO. Cell viability assays (MTS) were performed according to the manufacturer's protocol (Promega, Madison, Wis.). […] Dose-response curves were generated with GraphPad Prism 5 software (GraphPad Software Inc., La Jolla, Calif.). The combination indices (CI) were determined based on the method of Chou et al (26). CI values were calculated with CompuSyn software (http://www.combosyn.com/).

[6] = test system: J82 bladder cancer cell line; experiment: 72 hr cell viability assay (MTS), J82; format: cell-based, human; details: PTUPB 1, 2, 5, 10 μM
Experimental: as §5

[7] = test system: TCCSUP bladder cancer cell line; experiment: 72 hr cell viability assay (MTS), TCCSUP; format: cell-based, human; details: PTUPB 1, 2, 5, 10 μM
Experimental: as §5

[8] = test system: T24 bladder cancer cell line; experiment: 72 hr cell viability assay (MTS), T24; format: cell-based, human; details: PTUPB 1, 2, 5, 10 μM
Experimental: as §5

COX-2 and sEH pathways = experiment: oxylipin profile analysis (LC-MS/MS) of tumor tissue; format: in vivo, NSG mice
Experimental: Oxylipin profile analysis. Lipid extraction and analysis was performed as previously reported (20). Briefly, for tumor lipid mediator extraction, ˜100 mg of tumor tissues was mixed with an antioxidant solution (0.2 mg/mL butylated hydroxytoluene and 0.2 mg/mL triphenylphosphine in methanol), the surrogate solution, and 400 μL of extract solution (0.1% acetic acid with 0.2 mg/mL butylated hydroxytoluene in methanol), and then homogenized. The resulting homogenates were kept overnight at −80° C. Next day, the homogenates were centrifuged and supernatants were collected. The pellets were washed with 0.1% butylated hydroxytoluene and 0.1% acetic acid in methanol and the supernatants were collected and combined. LC-MS/MS analysis of the extracts were carried out on an Agilent 1200SL liquid chromatographic system coupled to a 4000 QTRAP MS/MS instrument (AB Sciex) as described (29).

[9] = BL0293, PTUPB 30 mg/kg orally once daily, cisplatin 2 mg/kg i.v.

**Q.** For `NS(=O)(=O)c1ccc(-n2nc(CCCNC(=O)Nc3ccc(C(F)(F)F)cc3)cc2-c2ccccc2)cc1` [PTUPB, 4-(5-phenyl-3-{3-[3-(4-trifluoromethyl-phenyl)-ureido]-propyl}-pyrazol-1-yl)-benzenesulfonamide], which “COX-1 (% inhibition)” value (COX-1) is on record?
**A.** 22.7%

**Q.** What about the “median time to a […] increase in tumor volume” value [1, 9] of the same molecule?
**A.** 24.4 days

**Q.** And the overall survival [1, 9]?
**A.** 39.4 days

**Q.** And the “anti-tumor activity, single agent” value ([1]; mice bearing BL0293 tumors)?
**A.** moderate anti-tumor activity

**Q.** What about the “inhibition of tumor growth on addition to GC (gemcitabine and cisplatin)” value ([2]; PTUPB 30 mg/kg, cisplatin 2 mg/kg, gemcitabine 150 mg/kg) of the same molecule?
**A.** best inhibition of tumor growth

**Q.** What about the “potentiation of cisplatin with respect to inhibiting tumor growth” value ([2]; combined with cisplatin 2 mg/kg) of the same molecule?
**A.** best and most statistically significant potentiation

**Q.** What about the “gemcitabine chemotherapy efficacy (tumor volume)” value ([3]; PTUPB 30 mg/kg p.o. with gemcitabine 150 mg/kg IP) of the same molecule?
**A.** extends gemcitabine chemotherapy efficacy

**Q.** And the “gemcitabine toxicity (animal weight)” value ([3]; PTUPB with gemcitabine)?
**A.** does not increase gemcitabine toxicity

**Q.** What about the tumor specific survival ([3]; PTUPB with gemcitabine) of the same molecule?
**A.** increases tumor specific survival

**Q.** What about the body weight change [4] of the same molecule?
**A.** slightly decreased body weight

**Q.** And the “histology examination of major organs” value [4]?
**A.** no such morphology changes were observed

**Q.** What about the “levels of p-ERK and p-AKT” value (p-ERK and p-AKT) of the same molecule?
**A.** did not significantly diminish

**Q.** And the IC50 ([5]; Homo sapiens, single drug, 72 hr)?
**A.** 90.4 µM

**Q.** And the “drug-drug interaction with cisplatin (combination index)” value ([5]; PTUPB 1, 2, 5 and 10 μM with cisplatin at 5 μM)?
**A.** modest synergistic effects

**Q.** And the “effect on cisplatin cytotoxicity” value [6]?
**A.** did not increase cisplatin cytotoxicity

**Q.** What about the “effect on cisplatin cytotoxicity” value [7] of the same molecule?
**A.** did not increase cisplatin cytotoxicity

**Q.** What about the “effect on cisplatin cytotoxicity” value [8] of the same molecule?
**A.** did not increase cisplatin cytotoxicity

**Q.** What about the “effect on diol metabolites 10,11-DiHDPE and 15,16-DiHODE” value (COX-2 and sEH pathways; BL0269 tumors) of the same molecule?
**A.** no effect

**Q.** And the “increase of 10,11-EpDPE, 15,16-EpODE” value (COX-2 and sEH pathways; BL0269 tumors)?
**A.** approximately two-fold increase

**Q.** And the “reduction of levels of prostaglandins PGE2, PGD2, TXB2, 6-keto-PGF1α in tumor” value (COX-2 and sEH pathways; mouse, in vivo)?
**A.** ~50%

**Q.** What about the “decrease of diol metabolite 12,13-DiHOME” value (COX-2 and sEH pathways; tumor) of the same molecule?
**A.** ~2 fold

**Q.** What about the “increase of 12,13-EpOME” value (COX-2 and sEH pathways; tumor) of the same molecule?
**A.** approximately two-fold increase
